Blank lines part the entries; values can stand above or below the molecule they belong to.
Key:
[1] = molecular target: Jarid1B (Homo sapiens (Human), UniProt Q9UGL1); experiment: In vitro enzyme inhibition assay for Jarid1B activity (TR-FRET); format: biochemical
Procedure: The ability of test compounds to inhibit the activity of Jarid1B was determined in 384-well plate format under the following reaction conditions: 0.8 nM Jarid1B, 300 nM H3K4me3-biotin labeled peptide (Anaspec cat #64357), 2 μM alpha-ketoglutaric acid in assay buffer of 50 mM HEPES, pH7.3, 0.005% Brij35, 0.5 mM TCEP, 0.2 mg/ml BSA, 50 μM sodium L-ascorbate, and 2 μM ammonium iron(II) sulfate. Reaction product was determined quantitatively by TR-FRET after the addition of detection reagent Phycolink Streptavidin-allophycocyanin (Prozyme) and Europium-anti-H3K4me or -H3K4me2 antibody (PerkinElmer) in the presence of 5 mM EDTA in LANCE detection buffer (PerkinElmer) at a final concentration of 25 nM and 1 nM, respectively.
(§1) The assay reaction was initiated by the following: 2 μl of the mixture of 900 nM H3K4me3-biotin labeled peptide and 6 μM alpha-ketoglutaric acid with 2 μl of 11-point serial diluted inhibitor in 3% DMSO was added to each well of the plate, followed by the addition of 2 μl of 2.4 nM Jarid1B to initiate the reaction. The reaction mixture was incubated at RT for 30 min, and terminated by the addition of 6 μl of 5 mM EDTA in LANCE detection buffer containing 50 nM Phycolink Streptavidin-allophycocyanin and 2 nM Europium-anti-H3K4me/H3K4me2 antibody. Plates were read by EnVisionMultilabel Reader in TR-FRET mode (excitation at 320 nm, emission at 615 nm and 665 nm) after 1 hr incubation at RT. A ratio was calculated (665/615) for each well and fitted to determine inhibition constant (IC50).

[2] = molecular target: JMJD3 (Homo sapiens, UniProt O15054); experiment: In vitro enzyme inhibition assay for JMJD3 activity (TR-FRET); format: biochemical
Procedure: This assay determines the ability of a test compound to inhibit JMJD3 demethylase activity. Baculovirus expressed JMJD3 (GenBank Accession #NM-001080424, AA1043-end) was purchased from BPS Bioscience (Cat#50115).
The enzymatic assay of JMJD3 activity is based upon Time Resolved-Fluorescence Resonance Energy Transfer (TR-FRET) detection. The ability of test compounds to inhibit the activity of JMJD3 was determined in 384-well plate format under the following reaction conditions: 5 nM JMJD3, 250 nM H3K27me3-biotin labeled peptide (Anaspec cat #64367), 0.4 to 2 μM α-ketoglutaric acid in assay buffer of 50 mM HEPES, pH7.3, 0.005% Brij35, 0.5 mM TCEP, 0.2 mg/ml BSA, 50 μM sodium L-ascorbate, and 5 μM ammonium iron(II) sulfate. Reaction product was determined quantitatively by TR-FRET after the addition of detection reagent Phycolink Streptavidin-allophycocyanin (Prozyme) and Europium-anti-H3K27me2 antibody (PerkinElmer) in the presence of 5 mM EDTA in LANCE detection buffer (PerkinElmer) at a final concentration of 50 nM and 1 nM, respectively.
The assay reaction was initiated by the following: […] of the mixture of 750 nM H3K27me3-biotin labeled peptide and 1.2 to 6 μM alpha-ketoglutaric acid with 2 μL of 11-point serial diluted inhibitor in 3% DMSO were added to each well of plate, followed by the addition of 2 μl of 15 nM JMJD3 to initiate the reaction. The reaction mixture was incubated at RT for 30 min, and terminated by the addition of 6 μL of 5 mM EDTA in LANCE detection buffer containing 100 nM Phycolink Streptavidin-allophycocyanin and 2 nM Europium-anti-H3K27me2 antibody. Plates were read by EnVisionMultilabel Reader in TR-FRET mode (excitation at 320 nm, emission at 615 nm and 665 nm) after 1 hr incubation at RT. A ratio from the readout of 665/615 was calculated for each well and fitted to determine inhibition constant (IC50).

[3] = system: esophageal squamous cell carcinoma KYSE-150 cells; experiment: Cellular IC50 in KYSE-150 cells; format: cell-based; settings: Homo sapiens, one class given per A and B pair
From the text: Table 7 provides IC50 values of various compounds disclosed herein, tested in cellular human esophageal squamous cell carcinoma KYSE-150 cells: […]

[4] = molecular target: JMJD2C (Homo sapiens (Human), UniProt Q9H3R0); experiment: In vitro enzyme inhibition assay for JMJD2C activity (TR-FRET); format: biochemical
JMJD2C, sequence (Q9H3R0 2-372): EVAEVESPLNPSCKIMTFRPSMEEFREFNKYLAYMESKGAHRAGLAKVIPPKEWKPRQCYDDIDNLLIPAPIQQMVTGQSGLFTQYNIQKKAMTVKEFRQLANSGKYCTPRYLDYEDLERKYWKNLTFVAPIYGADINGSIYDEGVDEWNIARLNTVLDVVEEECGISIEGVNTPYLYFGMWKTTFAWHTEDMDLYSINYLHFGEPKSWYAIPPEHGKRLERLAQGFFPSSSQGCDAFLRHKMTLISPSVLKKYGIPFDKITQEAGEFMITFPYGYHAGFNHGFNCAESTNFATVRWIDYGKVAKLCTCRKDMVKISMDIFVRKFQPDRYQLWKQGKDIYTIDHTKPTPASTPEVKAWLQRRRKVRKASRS
Procedure: This assay determines the ability of a test compound to inhibit JMJD2C demethylase activity. Baculovirus expressed JMJD2C (GenBank Accession #BC143571, AA 2-372) was purchased from BPS Bioscience (Cat#50105).
The ability of test compounds to inhibit the activity of JMJD2C was determined in 384-well plate format under the following reaction conditions: 0.3 nM JMJD2C, 300 nM H3K9me3-biotin labeled peptide (Anaspec cat #64360), 2 μM alpha-ketoglutaric acid in assay buffer of 50 mM HEPES, pH7.3, 0.005% Brij35, 0.5 mM TCEP, 0.2 mg/ml BSA, 50 μM sodium L-ascorbate, and 2 μM ammonium iron(II) sulfate. Reaction product was determined quantitatively by TR-FRET after the addition of detection reagent Phycolink Streptavidin-allophycocyanin (Prozyme) and Europium-anti-di-methylated histone H3 lysine 9 (H3K9me2) antibody (PerkinElmer) in the presence of 5 mM EDTA in LANCE detection buffer (PerkinElmer) at a final concentration of 50 nM and 1 nM, respectively.
as §1, with “nM H3K9me3-biotin” for “nM H3K4me3-biotin”, “DMSO were” for “DMSO was”, “of 0.9” for “of 2.4”, “nM JMJD2C” for “nM Jarid1B”, “containing 100” for “containing 50”, “nM Europium-anti-H3K9me2” for “nM Europium-anti-H3K4me/H3K4me2”

[5] = Table 5, one class given per A and B pair
[6] = Table 4, cell gives A/B enantiomer values

Jarid1B, sequence (Q9UGL1 whole entry, species assumed): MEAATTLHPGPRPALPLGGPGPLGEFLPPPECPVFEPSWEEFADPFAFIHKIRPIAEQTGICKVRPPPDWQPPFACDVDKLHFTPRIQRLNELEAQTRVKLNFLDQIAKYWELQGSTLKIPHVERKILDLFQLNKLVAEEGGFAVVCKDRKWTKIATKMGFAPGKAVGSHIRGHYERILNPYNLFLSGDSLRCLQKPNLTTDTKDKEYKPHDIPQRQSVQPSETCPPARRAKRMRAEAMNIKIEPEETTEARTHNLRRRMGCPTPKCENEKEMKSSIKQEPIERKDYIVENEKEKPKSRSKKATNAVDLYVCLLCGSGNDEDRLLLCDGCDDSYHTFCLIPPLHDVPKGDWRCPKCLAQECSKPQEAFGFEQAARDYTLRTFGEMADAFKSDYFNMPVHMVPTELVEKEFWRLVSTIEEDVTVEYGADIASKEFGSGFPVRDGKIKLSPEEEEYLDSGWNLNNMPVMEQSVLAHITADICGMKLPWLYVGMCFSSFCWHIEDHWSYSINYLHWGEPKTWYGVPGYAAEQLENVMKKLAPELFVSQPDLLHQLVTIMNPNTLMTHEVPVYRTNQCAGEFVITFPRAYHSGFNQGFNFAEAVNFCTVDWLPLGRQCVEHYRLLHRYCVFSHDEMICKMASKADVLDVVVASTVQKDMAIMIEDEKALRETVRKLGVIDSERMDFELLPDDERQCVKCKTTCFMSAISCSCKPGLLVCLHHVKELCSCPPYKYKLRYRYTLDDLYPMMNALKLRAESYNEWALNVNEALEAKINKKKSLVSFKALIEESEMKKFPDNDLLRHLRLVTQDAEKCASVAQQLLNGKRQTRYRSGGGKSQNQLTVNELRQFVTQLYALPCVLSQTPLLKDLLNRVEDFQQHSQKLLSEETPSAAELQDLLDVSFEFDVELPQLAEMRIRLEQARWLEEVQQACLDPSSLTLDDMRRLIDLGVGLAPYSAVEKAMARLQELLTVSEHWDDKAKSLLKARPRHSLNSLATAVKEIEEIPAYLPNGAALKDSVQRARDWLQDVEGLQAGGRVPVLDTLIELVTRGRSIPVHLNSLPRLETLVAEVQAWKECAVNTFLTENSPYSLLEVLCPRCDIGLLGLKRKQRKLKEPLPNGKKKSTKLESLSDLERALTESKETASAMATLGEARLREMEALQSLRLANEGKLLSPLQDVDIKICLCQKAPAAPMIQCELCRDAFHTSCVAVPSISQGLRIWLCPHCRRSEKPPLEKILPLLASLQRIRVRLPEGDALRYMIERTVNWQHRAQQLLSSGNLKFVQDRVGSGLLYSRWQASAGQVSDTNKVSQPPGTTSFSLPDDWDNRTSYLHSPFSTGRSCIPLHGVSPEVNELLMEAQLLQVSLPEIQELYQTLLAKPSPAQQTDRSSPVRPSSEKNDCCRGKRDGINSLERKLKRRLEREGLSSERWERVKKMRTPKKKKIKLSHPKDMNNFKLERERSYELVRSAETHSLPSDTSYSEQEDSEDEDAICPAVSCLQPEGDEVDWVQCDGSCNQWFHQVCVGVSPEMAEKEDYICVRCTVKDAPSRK

SMILES: CC(C)c1ccc(N(C)c2ccc3c(c2)CCN[C@H]3CNc2cnccc2C(=O)O)cc1 [Example 3B, 3-{[((1R)-6-{methyl[4-isopropylphenyl]amino}-1,2,3,4-tetrahydroisoquinolyl)methyl]amino}pyridine-4-carboxylic acid]
IC50 [1, 6]: ≤ 100 nM
IC50 [1, 5]: ≤ 100 nM
IC50 [2, 6]: 100 to 1000 nM
IC50 [2, 5]: 100 to 1000 nM
IC50 [3]: ≤ 100 nM
IC50 [4, 6]: 100 to 1000 nM
IC50 [4, 5]: 100 to 1000 nM

SMILES: Cc1ccc(N(C)c2ccc3c(c2)CN(C)[C@H]3CNc2cnccc2C(=O)O)cc1 [Example 18A, (R)-3-(((2-methyl-5-(methyl(p-tolyl)amino)isoindolin-1-yl)methyl)amino) isonicotinic acid]
IC50 [1, 5]: ≤ 100 nM
IC50 [2, 5]: 1000 to 10000 nM
IC50 [3]: ≤ 100 nM
IC50 [4, 5]: 100 to 1000 nM

SMILES: Cc1ccccc1-c1ccc2c(c1)CCN(C)[C@H]2CNc1cnccc1C(=O)O [Example 12A, (R)-3-(((2-methyl-6-(o-tolyl)-1,2,3,4-tetrahydroisoquinolin-1-yl)methyl)amino)isonicotinic acid]
IC50 [1, 5]: ≤ 100 nM
IC50 [2, 5]: 1000 to 10000 nM
IC50 [3]: ≤ 100 nM
IC50 [4, 5]: 1000 to 10000 nM

SMILES: Cc1ccccc1-c1ccc2c(c1)CCN[C@@H]2CNc1cnccc1C(=O)O [Example 8B, (S)-3-(((6-(o-tolyl)-1,2,3,4-tetrahydroisoquinolin-1-yl)methyl)amino) isonicotinic Acid]
IC50 [1, 5]: ≤ 100 nM
IC50 [2, 5]: 1000 to 10000 nM
IC50 [3]: 100 to 1000 nM
IC50 [4, 5]: 1000 to 10000 nM

SMILES: CCc1ccc(N(C)c2ccc3c(c2)CCN[C@@H]3CNc2cnccc2C(=O)O)cc1 [Example 10B, (S)-3-(((6-((4-ethylphenyl)(methyl)amino)-1,2,3,4-tetrahydroisoquinolin-1-yl)methyl)amino)isonicotinic acid]
IC50 [1, 5]: ≤ 100 nM
IC50 [2, 5]: 1000 to 10000 nM
IC50 [3]: 100 to 1000 nM
IC50 [4, 5]: 1000 to 10000 nM

SMILES: CCc1ccccc1-c1ccc2c(c1)CCN[C@@H]2CNc1cnccc1C(=O)O [Example 9B, (S)-3-(((6-(2-ethylphenyl)-1,2,3,4-tetrahydroisoquinolin-1-yl)methyl)amino)isonicotinic Acid]
IC50 [1, 5]: ≤ 100 nM
IC50 [2, 5]: 1000 to 10000 nM
IC50 [3]: 100 to 1000 nM
IC50 [4, 5]: 1000 to 10000 nM

SMILES: CCc1ccccc1-c1ccc2c(c1)CN(C)[C@@H]2CNc1cnccc1C(=O)O [Example 22B, (S)-3-(((5-(2-ethylphenyl)-2-methyl-isoindolin-1-yl)methyl)amino) isonicotinic acid]
IC50 [1, 5]: ≤ 100 nM
IC50 [2, 5]: 1000 to 10000 nM
IC50 [3]: ≤ 100 nM
IC50 [4, 5]: 100 to 1000 nM

Further lines, results first:

IC50 [1, 5]: ≤ 100 nM
IC50 [2, 5]: 1000 to 10000 nM
IC50 [3]: ≤ 100 nM
IC50 [4, 5]: 100 to 1000 nM
SMILES: CCc1ccccc1-c1ccc2c(c1)CN(C)[C@H]2CNc1cnccc1C(=O)O [Example 22A, (R)-3-(((5-(2-ethylphenyl)-2-methyl-isoindolin-1-yl)methyl)amino) isonicotinic acid]

IC50 [1, 5]: ≤ 100 nM
IC50 [2, 5]: 1000 to 10000 nM
IC50 [3]: ≤ 100 nM
IC50 [4, 5]: 100 to 1000 nM
SMILES: CCc1ccc(N(C)c2ccc3c(c2)CN(C)[C@H]3CNc2cnccc2C(=O)O)cc1 [Example 19A, (R)-3-(((5-((4-ethylphenyl)(methyl)amino)-2-methylisoindolin-1-yl)methyl)amino)isonicotinic acid]

IC50 [1, 5]: ≤ 100 nM
IC50 [2, 5]: 1000 to 10000 nM
IC50 [3]: ≤ 100 nM
IC50 [4, 5]: 100 to 1000 nM
SMILES: Cc1ccccc1-c1ccc2c(c1)CN(C)[C@@H]2CNc1cnccc1C(=O)O [Example 21B, (S)-3-(((2-methyl-5-(o-tolyl)isoindolin-1-yl)methyl)amino)isonicotinic acid]

IC50 [1, 6]: ≤ 100 nM
IC50 [1, 5]: ≤ 100 nM
IC50 [2, 6]: 1000 to 10000 nM
IC50 [2, 5]: 1000 to 10000 nM
IC50 [3]: 100 to 1000 nM
IC50 [4, 6]: 1000 to 10000 nM
IC50 [4, 5]: 1000 to 10000 nM
SMILES: Cc1cc(OCC(F)(F)F)ccc1-c1ccc2c(c1)CN[C@H]2CNc1cnccc1C(=O)O [Example 7B, 3-[({(1R)-5-[2-methyl-4-(2,2,2-trifluoro-ethoxy)phenyl]isoindolinyl}methyl)amino] pyridine-4-carboxylic acid]

IC50 [1, 5]: ≤ 100 nM
IC50 [2, 5]: 1000 to 10000 nM
IC50 [3]: 100 to 1000 nM
IC50 [4, 5]: 1000 to 10000 nM
SMILES: Cc1ccccc1-c1ccc2c(c1)CCN[C@H]2CNc1cnccc1C(=O)O [Example 8A, (R)-3-(((6-(o-tolyl)-1,2,3,4-tetrahydroisoquinolin-1-yl)methyl)amino)isonicotinic Acid]

IC50 [1, 5]: ≤ 100 nM
IC50 [2, 5]: 1000 to 10000 nM
IC50 [3]: 100 to 1000 nM
IC50 [4, 5]: 1000 to 10000 nM
SMILES: CCc1ccc(N(C)c2ccc3c(c2)CCN[C@H]3CNc2cnccc2C(=O)O)cc1 [Example 10A, (R)-3-(((6-((4-ethylphenyl)(methyl)amino)-1,2,3,4-tetrahydroisoquinolin-1-yl)methyl)amino)isonicotinic acid]

IC50 [1, 6]: ≤ 100 nM
IC50 [1, 5]: ≤ 100 nM
IC50 [2, 6]: 1000 to 10000 nM
IC50 [2, 5]: 1000 to 10000 nM
IC50 [3]: 100 to 1000 nM
IC50 [4, 6]: 1000 to 10000 nM
IC50 [4, 5]: 1000 to 10000 nM
SMILES: CC(C)c1ccc(N(C)c2ccc3c(c2)CN[C@@H]3CNc2cnccc2C(=O)O)cc1 [Example 6A, 3-{[((1S)-5-{methyl[4-isopropylphenyl]amino}isoindolinyl)methyl]amino}pyridine-4-carboxylic acid]

IC50 [1, 5]: ≤ 100 nM
IC50 [2, 5]: 1000 to 10000 nM
IC50 [3]: ≤ 100 nM
IC50 [4, 5]: 1000 to 10000 nM
SMILES: CCCc1ccc(N(C)c2ccc3c(c2)CCN(C)[C@H]3CNc2cnccc2C(=O)O)cc1 [Example 14A, (R)-3-(((2-methyl-6-(methyl (4-propylphenyl)amino)-1,2,3,4-tetrahydroisoquinolin-1-yl)methyl)amino)isonicotinic acid]

IC50 [1, 5]: ≤ 100 nM
IC50 [2, 5]: 1000 to 10000 nM
IC50 [3]: ≤ 100 nM
IC50 [4, 5]: 100 to 1000 nM
SMILES: Cc1ccccc1-c1ccc2c(c1)CN(C)[C@H]2CNc1cnccc1C(=O)O [Example 21A, (R)-3-(((2-methyl-5-(o-tolyl)isoindolin-1-yl)methyl)amino)isonicotinic acid]

Reference: US10059687B2, “Histone demethylase inhibitors” (CELGENE QUANTICEL RESEARCH, INC., priority 2015, dated 2018)
